# Measurements from patent US6680025B2, “Device and method for photoactivation” (Cerus Corporation, priority 1989, dated 2004).
# Legend:
# [1] = system: Molt-4 human genomic DNA (human beta globin gene); test: Sterilization of genomic target before PCR (beta globin 174 bp); format: biochemical
# Protocol: Four samples containing 1 μg of Molt-4 human genomic DNA target were prepared for PCR with primers KM 29 (5′-[…]) and HRI-12 (5′-[…]). These primers give a 174 bp product within the human beta globin gene. All four samples contained AMDMIP at 100 μg/ml, and were irradiated for 0, 5, 10 or 15 minutes prior to PCR amplification. […] Amplification were carried out in 1×Taq buffer (50 mM KCl, 10 mM Tris pH 8.5, 2.5 mM MgCl2, 200 μg/ml gelatin), 175 μM each dNTP, 20 μM primer with 2.5 units of Taq polymerase and 100 μg/ml AMDMIP present during amplification. PCR was carried out for 30 cycles; one cycle=30 sec at 94° C. (denaturing), 30 sec at 55° C. (primer annealing), and 60 sec at 72° C. (extension). α-[…] was used as an internal label. After amplification, the samples were analyzed for product by PAGE followed by autoradiography.
# [2] = system: HIV 115-mer PCR product; test: Photoproduct sterilization of PCR (HIV 115-mer carryover); format: biochemical; conditions: 30 cycles; for sterilization of PCR (Example 52): 100 μl/ml
# Description: FIG. 36 describes a series of oligonucleotides that can be used with the PCR amplification technique. Two primers are described (SK-38 and SK-39) that are complementary to a segment of the HIV genome. Each primer is complementary to sequences at the […] of one of each of two strands of a 115 base pair long segment of the HIV genome. In addition, FIG. 36 describes a crosslinkable probe molecule which is capable of hybridizing and crosslinking to one strand of the 115-mer PCR product. Repeated thermal cycling of SK-38 and SK-39 in the presence of Taq polymerase, appropriate reagents, and a target polynucleotide containing at least the 115-mer segment bounded by SK-38/SK-39, will result in the synthesis of both strands of the 115-mer. Therefore, PCR amplification will occur, with both strands of the 115-mer accumulating geometrically. This is in contrast to the oligonuceleotides described in FIG. 26. Only one primer (SK-39) is described in FIG. 26 which is capable hybridizing to the 3′ end of the 71-mer target oligonucleotide (HRI-55). The lack of a second primer in the system of oligonucleotides described by FIG. 26 prevents this system from being amplified geometrically. Repeated thermal cycling of HRI-55 and SK-39 in the presence of Taq polymerase and appropriate reagents will result in the linear accumulation of the complement of HRI-55.
# […] Aliquots of AMDIIIP photoproduct and the unirradiated compound were added (by pipetting) at 50, 100, 200 and 300 μg/ml to 1 μl aliquots of a 10^6 delution of PCR product copies. PCR product was provided by a) preparing template, b) providing template, c) providing PCR reagents, d) providing polymerase, e) mixing PCR reagents, template, and polymerase to initiate PCR, f) cycling to synthesize PCR product.
# Step a): Template Preparation. The templates were derived from actual patient samples. Ficoll-Hypaque separated peripheral blood mononuclear cells (PBMCs) are prepared from individuals enrolled in a longitudinal AIDS study. Approximately 1×10^6 cells are added to 10 ml of RPMI containing 10% fetal calf serum. The cells are pelleted by centrifugation at 20×g for 5 minutes and washed twice with 10 ml PBS. The cell pellet is resuspended in a solution of 50 mM KCl, 10 mM Tris-HCl (pH 8.3), 2.5 mM MgCl2 and subsequently lysed by the addition of 0.5% Tween 20 and 0.5% NP40. Samples are digested with 60 μg/ml proteinase K (Sigma) for 1 hour at 60° C. […]
# Again, to evaluate the efficacy of this method of sterilization, a subsequent polymerase chain reaction was carried out for 30 cycles in the presence of α-^32P-dCTP. PCR product was then quantitated by running gels (see above), cutting the bands (detected by autoradiography) and counting the bands on a commercial scintillation counter. […]
smiles,measurement,setting,value
"Cc1oc2ccc3c(C)cc(=O)oc3c2c1CN [AMDMIP, 4′-Aminomethyl-4,5′-dimethylisopsoralen]",impact of unirradiated AMDMIP on amplification,[1]; 100 μg/ml (data not shown),no significant impact on amplification
same,amplification of genomic target irradiated in presence of AMDMIP,"[1]; AMDMIP 100 μg/ml, irradiated 0, 5, 10 or 15 minutes before PCR, 30 cycles",no amplification of the sterilized genomic target
same,sterilization of PCR (Example 52),[2]; AMDMIP irradiated in CE-III device 15 minutes,extensive sterilization
same,sterilization of PCR (Example 52),[2]; AMDMIP irradiated in PTI device 15 minutes,little sterilization
same,sterilization of PCR (Example 52),[2]; unirradiated AMDMIP,PCR product is clearly evident
same,sterilization of PCR,"[2]; unirradiated compound at 50, 100, 200, 300 μg/ml",no sterilization
